≈ marks a conversion by molar mass, not a printed value. Where a name gives a salt, the structure may show the parent alone.
Experiments:
[1] = tested on: platelet agglutination (PRP, plasma rich in platelet); assay: Change of agglutination-inhibition rate with incubation time, fat emulsions (evaluated indirectly via c-AMP content in the platelets); type: cell-based, Wistar-strain male rats; set-up: concentration or dose not given beside the values; details: incubation 1 minute; compounds in fat emulsion, sodium salt of prostaglandin I2 in aq. solution
[2] = tested on: platelet agglutination (PRP, plasma rich in platelet); assay: Platelet-agglutination inhibition test (rat PRP, adenosine phosphate, aggregometer); type: cell-based, Wistar-strain male rats; details: 1 min, concentration in terms of prostaglandin I2 reducing maximum agglutination rate by 50% relative to control, 1 min at 37° C., 1 mM adenosine phosphate, read-out: ED50 (the source's name)
From the text: (§1) Wistar-strain male rats weighing 150 to 200 g were used in the experiment.
(§2) Blood samples were collected from the heart of the animal without anasthesia by the use of a syringe, in which 3.3% sodium citrate solution had been placed beforehand, in such a way that the volume ratio of the sodium citrate solution to the collected blood was 1:9. The collected blood was then quickly centrifuged at 170 G at room temperature to obtain plasma rich in platelet (hereinafter referred to as PRP).
Then, the compounds 1, 2 and 3 as well as sodium salt of prostaglandin I2 were respectively dissolved in ethanol to a concentration of 1 mg/ml in terms of prostaglandin I2, and thereafter diluted with physiological saline to form solutions of various concentrations.
The platelet-agglutination inhibition test was carried out in the following manner.
The above-mentioned PRP (500 μl) and the above solution 50 μl) containing the drug tested were incubated at 37° C. for one minute in an aggregometer cuvette; then 1 mM adenosine phosphate solution (50 μl) was added to the mixture to obtain an agglutination curve on the instrument and determine the maximum agglutination rate. A mixture of 500 μl of PRP, 50 μl of physiological saline and 50 μl of 1 mM adenosine phosphate solution was used as the control to obtain similarly an agglutination curve.
The concentration (ED50) in terms of prostaglandin I2 of each of the drugs to be tested, at which the solution containing the drug reduces the percentage of the maximum agglutination rate by 50% relative to that of the control taken as 100, was calculated.

[3] = tested on: platelet agglutination (PRP, plasma rich in platelet); assay: Change of agglutination-inhibition rate with incubation time, fat emulsions (evaluated indirectly via c-AMP content in the platelets); type: cell-based, Wistar-strain male rats; set-up: concentration or dose not given beside the values; details: compounds in fat emulsion, sodium salt of prostaglandin I2 in aq. solution; for agglutination-inhibition rate, incubation time 5 minutes: incubation 5 minutes; for agglutination-inhibition rate, incubation time 20 minutes: incubation 20 minutes; for agglutination-inhibition rate, incubation time 60 minutes: incubation 60 minutes
From the text: as §1, §2
Separately, by using fat emulsions prepared as in Example 3 and extending the incubation time to 5, 20 and 60 minutes, the changes in agglutination-inhibition rate were observed. Each fat emulsion was prepared to contain 1 mg in terms of prostaglandin I2 of a test compound. It was incubated with PRP for a predetermined time; the platelets were then washed; and the content of c-AMP in the platelets was determined, thus to evaluate indirectly the inhibitory action on platelet agglutination. A physiological saline solution of sodium salt of prostaglandin I2 was used as the control.

[4] = tested on: other smooth muscles; details: cited from earlier work
[5] = tested on: artery; details: cited from earlier work
[6] = tested on: human platelet agglutination; details: cited from earlier work
[7] = cited from earlier work
[8] = tested on: platelet agglutination; details: cited from earlier work

CCCCCC(O)C=CC1C(O)CC2OC(=CCCCC(=O)OCC(=O)OCCCC)CC21 (centres unmarked) [Compound 1, butoxycarbonylmethyl prostaglandin I2 ester]
agglutination-inhibition rate, incubation time 1 minute [1]: 13% | IC50 [2]: 4.6 µg/mL (≈ 9.86 µM) | agglutination-inhibition rate, incubation time 5 minutes [3]: 11% | agglutination-inhibition rate, incubation time 20 minutes [3]: 7% | agglutination-inhibition rate, incubation time 60 minutes [3]: 3%

CCCCCC(O)C=CC1C(O)CC2OC(=CCCCC(=O)OCOC(=O)C(C)(C)C)CC21 (centres unmarked) [Compound 2, Pivaloyloxymethyl prostaglandin I2 ester]
agglutination-inhibition rate, incubation time 1 minute [1]: 93% | IC50 [2]: 0.5 µg/mL (≈ 1.07 µM) | agglutination-inhibition rate, incubation time 5 minutes [3]: 78% | agglutination-inhibition rate, incubation time 20 minutes [3]: 51% | agglutination-inhibition rate, incubation time 60 minutes [3]: 27%

CCCCCC(=O)OC(C)OC(=O)CCCC=C1CC2C(CC(O)C2C=CC(O)CCCCC)O1 (centres unmarked) [Compound 3, 1-Hexanoyloxyethyl prostaglandin I2 ester]
agglutination-inhibition rate, incubation time 1 minute [1]: 78% | IC50 [2]: 0.7 µg/mL (≈ 1.42 µM) | agglutination-inhibition rate, incubation time 5 minutes [3]: 71% | agglutination-inhibition rate, incubation time 20 minutes [3]: 65% | agglutination-inhibition rate, incubation time 60 minutes [3]: 48%

CCCCC[C@H](O)/C=C/[C@@H]1[C@H]2C/C(=C/CCCC(=O)O)O[C@H]2C[C@H]1O [Sodium salt of prostaglandin I2, reference compound]
agglutination-inhibition rate, incubation time 1 minute [1]: 100% | IC50 [2]: 0.4 µg/mL | agglutination-inhibition rate, incubation time 5 minutes [3]: 17% | agglutination-inhibition rate, incubation time 20 minutes [3]: 0% | agglutination-inhibition rate, incubation time 60 minutes [3]: 0%

CCCCC[C@H](O)/C=C/[C@@H]1[C@H]2C/C(=C/CCCC(=O)O)O[C@H]2C[C@H]1O [prostaglandin I2, (5Z,13E)-(9α, 11α, 15S)-6,9-epoxy-11,15-dihydroxyprosta-5,13-dienoic acid]
relaxation of other smooth muscles [4]: does not relax other smooth muscles | artery-relaxative or artery-contractive action [5]: powerful artery-relaxative action | suppression of human platelet agglutination action induced by arachidonic acid [6]: strongly suppresses | water solubility [7]: fairly water-soluble

CCCCCC(O)C=CC1OC2CC(O2)C1CC=CCCCC(=O)O (centres unmarked) [thromboxan A2]
platelet-agglutination action [8]: platelet-agglutination action | artery-relaxative or artery-contractive action [5]: artery-contractive action

Source: US4613614A, “Prostaglandin I2 ester and fat emulsion containing the same” (The Green Cross Corporation, priority 1983, dated 1986)
